These results are taken from patent US20220168427A1 (Ranok Therapeutics (Hangzhou) Co. Ltd., priority 2019, published 2022).

Some results are limits rather than exact numbers.

In data set [1] the target is T1, BRD4 (BD1+BD2) (Homo sapiens, UniProt O60885).
T1 construct: 1.8 μg/ml recombinant BRD4 (BD1+BD2 domains) protein
The conditions noted are these: read-out: BRD4 Binding Potency. As for the experimental part: A master mix was prepared with assay buffer, 1.8 μg/ml recombinant BRD4 (BD1+BD2 domains) protein, and 200-fold dilutions of Tb-labeled donor and dye-labeled acceptor. 40-fold dilutions of acetylated and non-acetylated ligands were prepared in 1×BRD TR-FRET assay buffer. Also, a serial 3-fold dilution of each compound was prepared ranging from 40 μM down until 2.0 nM. In a 384-well plate, 5 μl diluted ligand and 5 μl of compound dilution were added per well to duplicate wells and mixed by brief shaking. Then 10 μl of master mix was added per well, mixed by brief shaking, incubated at 25° C. for 2 hr and fluorescence was measured on an EnVision Plate Reader. The 665 nm/615 nm ratio was calculated from EnVision raw data. Data were normalized using whole-plate averages of “positive” and “negative” readings. A four-parameter “log[inhibitor] vs. response” curve was fitted using GraphPad Prism 7.0.

For data set [2], the system named is MV4-11 cells. The data set can be described thus: MV4-11 Cell Cytotoxicity Assay. The format is cell-based, human. The following applies: human, MV4-11 cells, CCK-8. From the text: % Inhibition=100−(D−B)/(S−B)*100%.
S: The absorbance of the maximum (cells with DMSO)
B: The absorbance of the minimum (medium with DMSO)

The target of data set [3] is HSP90α (Homo sapiens, UniProt P07900). Kind of data set: HSP90α Binding Fluorescent Polarization (FP) Assay. The following applies: competition with FITC-geldanamycin; read-out: HSP90 Binding Potency. On the procedure: HSP90α Binding Fluorescent Polarization (FP) Assay
A master mix was prepared with assay buffer, BSA and FITC-geldanamycin. In a 96-well plate, a serial 3-fold dilution of each compound was prepared ranging from 40 μM down until 2.0 nM. Also in a 96-well plate, recombinant HSP90α protein was diluted to 28 μg/ml. Then, in a 384-well plate, 10 μl of master mix and 5 μl of compound dilution were added per well to duplicate wells and mixed by brief shaking. Then 5 μl of diluted HSP90α protein was added per well, mixed by brief shaking, incubated at 25° C. for 30, 60 and 120 min and fluorescence was measured on an EnVision Plate Reader. Background-subtracted mP values were calculated from EnVision raw data and a four-parameter “log[inhibitor] vs. response” curve was fitted using GraphPad Prism 7.0.

Take `Cc1sc2c(c1C)C(c1ccc(Cl)cc1)=N[C@@H](CC(=O)NCC1CN(C(=O)C3CCN(Cc4ccc(-n5c(O)nnc5-c5cc(C(C)C)c(O)cc5O)cc4)CC3)C1)c1nnc(C)n1-2` [Compound 59, 2-((6S)-4-(4-chlorophenyl)-2,3,9-trimethyl-6H-thieno[3,2-f][1,2,4]triazolo[4,3-a][1,4]diazepin-6-yl)-N-((1-(1-(4-(3-(2,4-dihydroxy-5-isopropylphenyl)-5-hydroxy-4H-1,2,4-triazol-4-yl)benzyl)piperidine-4-carbonyl)azetidin-3-yl)methyl)acetamide, trifluoroacetic acid]: the IC50 in data set [1] and in data set [3] was 100 to 1000 nM throughout. Also, the IC50 at 72 h in data set [2] was < 100 nM.
`Cc1sc2c(c1C)C(c1ccc(Cl)cc1)=N[C@@H](CC(=O)NCCOc1cccc(CN(C)Cc3ccc(-n4c(O)nnc4-c4cc(C(C)C)c(O)cc4O)cc3)c1)c1nnc(C)n1-2` [Compound 50, 2-((6S)-4-(4-chlorophenyl)-2,3,9-trimethyl-6H-thieno[3,2-f][1,2,4]triazolo[4,3-a][1,4]diazepin-6-yl)-N-(2-(3-(((4-(3-(2,4-dihydroxy-5-isopropylphenyl)-5-hydroxy-4H-1,2,4-triazol-4-yl)benzyl)(methyl)amino)methyl)phenoxy)ethyl)acetamide, trifluoroacetic acid, trifluoroacetic acid, trifluoroacetic acid, trifluoroacetic …]: the results for the IC50 in data set [1] and in data set [3] were > 1000 nM and 100 to 1000 nM, respectively. Moreover, the IC50 at 72 h in data set [2] is < 100 nM.
As to `Cc1sc2c(c1C)C(c1ccc(Cl)cc1)=N[C@@H](CC(=O)N1CCC(N3CCN(c4ccc(-n5c(O)nnc5-c5cc(C(C)C)c(O)cc5O)cc4)CC3)CC1)c1nnc(C)n1-2` [Compound 43, 2-((6S)-4-(4-chlorophenyl)-2,3,9-trimethyl-6H-thieno[3,2-f][1,2,4]triazolo[4,3-a][1,4]diazepin-6-yl)-1-(4-(4-(4-(3-(2,4-dihydroxy-5-isopropylphenyl)-5-hydroxy-4H-1,2,4-triazol-4-yl)phenyl)piperazin-1-yl)piperidin-1-yl)ethanone, trifluoroacetic acid], the IC50 in data set [1] and in data set [3] was 100 to 1000 nM each time. Also, the IC50 at 72 h in data set [2] is < 100 nM.
Consider `Cc1sc2c(c1C)C(c1ccc(Cl)cc1)=N[C@@H](CC(=O)NCc1ccc(-n3c(S)nnc3-c3cc(C(C)C)c(O)cc3O)cc1)c1nnc(C)n1-2` [Compound 28, (S)-2-(4-(4-chlorophenyl)-2,3,9-trimethyl-6H-thieno[3,2-f][1,2,4]triazolo[4,3-a][1,4]diazepin-6-yl)-N-(4-(3-(2,4-dihydroxy-5-isopropylphenyl)-5-mercapto-4H-1,2,4-triazol-4-yl)benzyl)acetamide], for which the IC50 in data set [1] and in data set [3] was 100 to 1000 nM throughout. This molecule came in with an IC50 at 72 h in data set [2] of 100 to 1000 nM.
As to `CCCc1cc(-c2nnc(C(=O)NCCN3CCCCC3)n2-c2ccc(CN3CCN(CC4CCN(C(=O)C[C@@H]5N=C(c6ccc(Cl)cc6)c6c(sc(C)c6C)-n6c(C)nnc65)CC4)CC3)cc2)c(O)cc1O` [Compound 123, (S)-4-(4-((4-((1-(2-(4-(4-chlorophenyl)-2,3,9-trimethyl-6H-thieno[3,2-f][1,2,4]triazolo[4,3-a][1,4]diazepin-6-yl)acetyl)piperidin-4-yl)methyl)piperazin-1-yl)methyl)phenyl)-5-(2,4-dihydroxy-5-propylphenyl)-N-(2-(piperidin-1-yl)ethyl)-4H-1,2,4-triazole-3-carboxamide, trifluoroacetic acid], the IC50 in data set [1] was < 100 nM; in data set [3] it was 100 to 1000 nM. Besides, the IC50 at 72 h in data set [2] was < 100 nM.
For the molecule `Cc1nn(-c2ccc(C(N)=O)c(NCCOCCOCCNC(=O)C[C@@H]3N=C(c4ccc(Cl)cc4)c4c(sc(C)c4C)-n4c(C)nnc43)c2)c2c1C(=O)CC(C)(C)C2` [Compound 21, 2-((2-(2-(2-(2-((6S)-4-(4-chlorophenyl)-2,3,9-trimethyl-6H-thieno[3,2-f][1,2,4]triazolo[4,3-a][1,4]diazepin-6-yl)acetamido)ethoxy)ethoxy)ethyl)amino)-4-(3,6,6-trimethyl-4-oxo-4,5,6,7-tetrahydro-1H-indazol-1-yl)benzamide, trifluoroacetic acid], the IC50 in data set [1] and in data set [3] was > 1000 nM each time. Besides, in data set [2], the IC50 at 72 h is 100 to 1000 nM.
With `CCCc1cc(C(=O)N2Cc3ccc(CN4CCN(C(=O)C[C@@H]5N=C(c6ccc(Cl)cc6)c6c(sc(C)c6C)-n6c(C)nnc65)CC4)cc3C2)c(O)cc1O` [Compound 145, (S)-2-(4-(4-chlorophenyl)-2,3,9-trimethyl-6H-thieno[3,2-f][1,2,4]triazolo[4,3-a][1,4]diazepin-6-yl)-1-(4-((2-(2,4-dihydroxy-5-propylbenzoyl)isoindolin-5-yl)methyl)piperazin-1-yl)ethan-1-one], the IC50 in data set [1] was > 1000 nM; in data set [3], 100 to 1000 nM. Moreover, the IC50 at 72 h in data set [2] is > 1000 nM.
For `Cc1sc2c(c1C)C(c1ccc(Cl)cc1)=N[C@@H](CC(=O)N1CCC(CN3CCN(c4ccc(-n5c(O)nnc5-c5cc(C(C)C)c(O)cc5O)cc4)CC3)CC1)c1nnc(C)n1-2` [Compound 41, (S)-2-(4-(4-chlorophenyl)-2,3,9-trimethyl-6H-thieno[3,2-f][1,2,4]triazolo[4,3-a][1,4]diazepin-6-yl)-1-(4-((4-(4-(3-(2,4-dihydroxy-5-isopropylphenyl)-5-hydroxy-4H-1,2,4-triazol-4-yl)phenyl)piperazin-1-yl)methyl)piperidin-1-yl)ethanone], the IC50 in data set [1] and in data set [3] was 100 to 1000 nM in each case. The IC50 at 72 h in data set [2] is < 100 nM.
Consider `CCN(Cc1ccc(OCCCNC(=O)C[C@@H]2N=C(c3ccc(Cl)cc3)c3c(sc(C)c3C)-n3c(C)nnc32)cc1)Cc1ccc(-n2c(C(=O)NCC(F)(F)F)nnc2-c2cc(C(C)C)c(O)cc2O)cc1` [Compound 102, (S)-4-(4-(((4-(3-(2-(4-(4-chlorophenyl)-2,3,9-trimethyl-6H-thieno[3,2-f][1,2,4]triazolo[4,3-a][1,4]diazepin-6-yl)acetamido)propoxy)benzyl)(ethyl)amino)methyl)phenyl)-5-(2,4-dihydroxy-5-isopropylphenyl)-N-(2,2,2-trifluoroethyl)-4H-1,2,4-triazole-3-carboxamide, trifluoroacetic acid], for which the IC50 in data set [1] and in data set [3] was > 1000 nM in each case. For the same molecule, in data set [2], the IC50 at 72 h is < 100 nM.
With `Cc1sc2c(c1C)C(c1ccc(Cl)cc1)=N[C@@H](CCNCC1CCN(C(=O)C3CCN(Cc4ccc(-n5c(O)nnc5-c5cc(C(C)C)c(O)cc5O)cc4)CC3)CC1)c1nnc(C)n1-2` [Compound 64, (4-(((2-((6S)-4-(4-chlorophenyl)-2,3,9-trimethyl-6H-thieno[3,2-f][1,2,4]triazolo[4,3-a][1,4]diazepin-6-yl)ethyl)amino)methyl)piperidin-1-yl)(1-(4-(3-(2,4-dihydroxy-5-isopropylphenyl)-5-hydroxy-4H-1,2,4-triazol-4-yl)benzyl)piperidin-4-yl)methanone, trifluoroacetic acid], the IC50 in data set [1] and in data set [3] was 100 to 1000 nM each time. Moreover, in data set [2], the IC50 at 72 h lay in the range of 100 to 1000 nM.
